Source: publication PMC3961306, “Comparison of the Cancer Gene Targeting and Biochemical Selectivities of All Targeted Kinase Inhibitors Approved for Clinical Use” (PLoS ONE, 2014)

Legend:
Assay in all cases: Kinase profiling in a biochemical assay panel (mobility shift assays and ELISA), %-inhibition at 1 μM; selectivity entropy
[1] = molecular target: panel of more than 300 wild-type and mutant kinases (313 kinase panel) (Homo sapiens, UniProt P07333)
[2] = molecular target: panel of more than 300 wild-type and mutant kinases (313 kinase panel) (Homo sapiens, UniProt P07948)
[3] = molecular target: panel of more than 300 wild-type and mutant kinases (313 kinase panel) (Homo sapiens, UniProt P23443)
[4] = molecular target: T1, panel of more than 300 wild-type and mutant kinases (313 kinase panel) (Homo sapiens, UniProt Q02156)
T1 sequence (Q02156 1-737): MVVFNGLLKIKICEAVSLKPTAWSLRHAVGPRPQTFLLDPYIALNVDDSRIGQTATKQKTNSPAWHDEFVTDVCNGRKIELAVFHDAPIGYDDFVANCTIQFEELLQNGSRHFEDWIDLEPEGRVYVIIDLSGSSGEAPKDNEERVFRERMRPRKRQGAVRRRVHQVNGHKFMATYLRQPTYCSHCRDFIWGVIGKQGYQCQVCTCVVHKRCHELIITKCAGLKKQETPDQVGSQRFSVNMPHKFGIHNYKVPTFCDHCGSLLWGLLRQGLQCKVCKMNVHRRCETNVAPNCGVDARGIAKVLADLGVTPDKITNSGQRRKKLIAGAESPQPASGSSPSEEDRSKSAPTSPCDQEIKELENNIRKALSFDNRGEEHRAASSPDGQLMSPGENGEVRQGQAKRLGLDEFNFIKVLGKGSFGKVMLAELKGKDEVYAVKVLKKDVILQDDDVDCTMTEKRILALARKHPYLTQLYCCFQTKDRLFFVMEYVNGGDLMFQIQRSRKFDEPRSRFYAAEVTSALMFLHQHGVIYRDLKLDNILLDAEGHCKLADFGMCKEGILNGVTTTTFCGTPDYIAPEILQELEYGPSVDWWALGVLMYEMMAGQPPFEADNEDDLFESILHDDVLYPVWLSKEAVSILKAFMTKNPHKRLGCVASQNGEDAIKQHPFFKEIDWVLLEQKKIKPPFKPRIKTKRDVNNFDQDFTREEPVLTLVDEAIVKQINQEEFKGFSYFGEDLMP

[5] = molecular target: panel of more than 300 wild-type and mutant kinases (313 kinase panel) (Homo sapiens, UniProt Q08345)
[6] = molecular target: panel of more than 300 wild-type and mutant kinases (313 kinase panel) (Homo sapiens, UniProt Q9HC98)
[7] = molecular target: T2, panel of more than 300 wild-type and mutant kinases (313 kinase panel) (Homo sapiens, UniProt Q9UF33)
T2 sequence (Q9UF33 23-1036): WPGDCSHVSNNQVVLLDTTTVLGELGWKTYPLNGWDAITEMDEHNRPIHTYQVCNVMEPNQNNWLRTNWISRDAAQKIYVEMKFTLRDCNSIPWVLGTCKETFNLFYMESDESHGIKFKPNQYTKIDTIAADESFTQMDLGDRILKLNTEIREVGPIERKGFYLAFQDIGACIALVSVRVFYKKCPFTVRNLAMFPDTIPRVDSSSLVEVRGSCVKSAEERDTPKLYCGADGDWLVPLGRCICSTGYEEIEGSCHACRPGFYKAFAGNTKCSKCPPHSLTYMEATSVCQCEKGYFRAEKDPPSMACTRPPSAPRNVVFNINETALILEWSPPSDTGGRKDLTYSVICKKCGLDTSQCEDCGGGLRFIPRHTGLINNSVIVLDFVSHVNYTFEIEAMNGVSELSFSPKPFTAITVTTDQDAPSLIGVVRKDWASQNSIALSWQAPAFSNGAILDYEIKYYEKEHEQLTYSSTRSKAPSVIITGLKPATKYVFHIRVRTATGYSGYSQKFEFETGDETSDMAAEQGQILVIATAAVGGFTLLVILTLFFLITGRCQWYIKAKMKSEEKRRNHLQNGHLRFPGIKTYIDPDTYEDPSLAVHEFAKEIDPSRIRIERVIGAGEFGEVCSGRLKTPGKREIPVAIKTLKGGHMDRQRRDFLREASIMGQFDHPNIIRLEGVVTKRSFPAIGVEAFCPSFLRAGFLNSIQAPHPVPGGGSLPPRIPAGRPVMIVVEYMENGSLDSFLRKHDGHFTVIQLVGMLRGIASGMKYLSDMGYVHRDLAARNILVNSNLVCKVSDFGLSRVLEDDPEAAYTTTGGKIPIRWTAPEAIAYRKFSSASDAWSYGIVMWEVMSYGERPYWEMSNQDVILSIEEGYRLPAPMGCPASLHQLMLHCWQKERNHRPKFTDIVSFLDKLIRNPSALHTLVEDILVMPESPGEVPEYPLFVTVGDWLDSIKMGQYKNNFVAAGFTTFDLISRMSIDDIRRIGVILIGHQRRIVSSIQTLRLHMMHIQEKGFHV

[8] = molecular target: panel of more than 300 wild-type and mutant kinases (313 kinase panel) (Homo sapiens, UniProt P22607, K650M)
panel of more than 300 wild-type and mutant kinases (313 kinase panel) (Homo sapiens, UniProt P22607, K650M), sequence (P22607 23-806 K650M): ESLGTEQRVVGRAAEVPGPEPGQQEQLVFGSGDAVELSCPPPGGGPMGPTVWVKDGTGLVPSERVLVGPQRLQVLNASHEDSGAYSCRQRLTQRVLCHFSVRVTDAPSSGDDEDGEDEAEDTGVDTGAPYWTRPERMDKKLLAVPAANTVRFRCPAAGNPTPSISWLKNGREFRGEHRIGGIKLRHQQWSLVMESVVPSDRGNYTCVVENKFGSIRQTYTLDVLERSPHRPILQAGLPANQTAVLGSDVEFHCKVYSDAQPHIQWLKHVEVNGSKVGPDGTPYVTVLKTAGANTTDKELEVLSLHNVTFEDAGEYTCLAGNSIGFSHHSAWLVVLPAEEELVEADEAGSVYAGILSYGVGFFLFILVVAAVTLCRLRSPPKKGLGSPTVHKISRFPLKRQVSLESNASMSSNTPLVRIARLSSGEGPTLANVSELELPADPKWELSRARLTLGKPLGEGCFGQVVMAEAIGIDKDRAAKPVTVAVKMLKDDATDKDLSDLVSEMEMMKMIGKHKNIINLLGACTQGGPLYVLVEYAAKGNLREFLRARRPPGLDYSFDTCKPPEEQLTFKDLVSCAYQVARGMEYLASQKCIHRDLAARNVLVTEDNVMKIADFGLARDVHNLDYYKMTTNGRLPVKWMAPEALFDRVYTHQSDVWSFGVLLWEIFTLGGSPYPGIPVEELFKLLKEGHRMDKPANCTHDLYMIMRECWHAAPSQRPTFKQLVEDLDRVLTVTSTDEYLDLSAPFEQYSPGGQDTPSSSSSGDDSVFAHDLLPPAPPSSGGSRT

[9] = kinase FGFR3(K650M), compound at 1 μM

Row | SMILES | %-inhibition of FMS ([1]; kinase FMS, compound at 1 μM) [%] | %-inhibition of LYNa ([2]; kinase LYNa, compound at 1 μM) [%] | %-inhibition of p70S6K ([3]; kinase p70S6K, 1 μM) [%] | %-inhibition of PKCε ([4]; kinase PKCε, 1 μM) [%] | %-inhibition of DDR1 ([5]; kinase DDR1, compound at 1 μM) [%] | %-inhibition of NEK6 ([6]; 1 µM) [%] | %-inhibition of EPHA6 ([7]; kinase EPHA6, compound at 1 μM) [%] | %-inhibition of FGFR3(K650M) [8, 9] [%] | %-inhibition of NEK6 ([6]; kinase NEK6, 1 μM) [%] | %-inhibition of LYNa ([2]; 1 µM) [%] | %-inhibition of FGFR3(K650M) ([8]; 1 µM) [%] | %-inhibition of p70S6K ([3]; 1 µM) [%] | %-inhibition of PKCε ([4]; 1 µM) [%] | %-inhibition of DDR1 ([5]; 1 µM) [%] | %-inhibition of EPHA6 ([7]; 1 µM) [%] | %-inhibition of FMS ([1]; 1 µM) [%]
1 | COc1cc(Nc2c(C#N)cnc3cc(OCCCN4CCN(C)CC4)c(OC)cc23)c(Cl)cc1Cl [bosutinib] | 93 | 93 | 43 | -0.711 | 97 | -6 | 102 | – | – | – | – | – | – | – | – | –
2 | COc1cc2nccc(Oc3ccc(NC(=O)C4(C(=O)Nc5ccc(F)cc5)CC4)cc3)c2cc1OC [cabozantinib] | 54 | 100 | 8 | 3 | 102 | – | 100 | 10 | -3.21 | – | – | – | – | – | – | –
3 | C[C@@H](Oc1cc(-c2cnn(C3CCNCC3)c2)cnc1N)c1c(Cl)ccc(F)c1Cl [crizotinib] | 92 | 42 | 40 | -7 | 97 | – | 100 | 61 | -2.72 | – | – | – | – | – | – | –
4 | CC(C)(C)c1nc(-c2cccc(NS(=O)(=O)c3c(F)cccc3F)c2F)c(-c2ccnc(N)n2)s1 [dabrafenib] | 15 | – | – | 5 | 96 | – | 88 | 7 | -3 | – | – | – | – | – | – | –
5 | Cc1nc(Nc2ncc(C(=O)Nc3c(C)cccc3Cl)s2)cc(N2CCN(CCO)CC2)n1 [dasatinib] | – | – | 11 | – | – | – | – | – | – | – | – | – | – | – | – | –
6 | C#Cc1cccc(Nc2ncnc3cc(OCCOC)c(OCCOC)cc23)c1 [erlotinib] | – | – | – | – | – | 2 | – | – | – | 64 | 87 | 10 | 0.598 | 93 | 69 | –
7 | CO[C@H]1C[C@@H]2CC[C@@H](C)[C@@](O)(O2)C(=O)C(=O)N2CCCC[C@H]2C(=O)O[C@H]([C@H](C)C[C@@H]2CC[C@@H](OCCO)[C@H](OC)C2)CC(=O)[C@H](C)/C=C(\C)[C@@H](O)[C@@H](OC)C(=O)[C@H](C)C[C@H](C)/C=C/C=C/C=C/1C [everolimus] | -2.3 | -1.27 | -13 | -2.79 | -2.76 | – | 2.18 | 2.71 | -6.38 | – | – | – | – | – | – | –
8 | O=S(=O)(c1cccc2cnccc12)N1CCCNCC1 [fasudil] | -3 | -1.61 | 38 | -43 | -1.19 | – | 6 | -0.618 | -2.46 | – | – | – | – | – | – | –
9 | CS(=O)(=O)CCNCc1ccc(-c2ccc3ncnc(Nc4ccc(OCc5cccc(F)c5)c(Cl)c4)c3c2)o1 [lapatinib] | -5.46 | – | 8 | – | 33 | – | 20 | 1.23 | -4.3 | 9 | – | – | – | – | – | –
10 | Cc1ccc(Nc2nccc(N(C)c3ccc4c(C)n(C)nc4c3)n2)cc1S(N)(=O)=O [pazopanib] | – | 84 | 17 | -5.38 | 97 | – | 24 | – | -3 | – | – | – | – | – | – | –
11 | Cc1ccc(C(=O)Nc2ccc(CN3CCN(C)CC3)c(C(F)(F)F)c2)cc1C#Cc1cnc2cccnn12 [ponatinib] | 101 | 100 | 101 | 12 | – | – | 103 | 100 | -10 | – | – | – | – | – | – | –
12 | N#CC[C@H](C1CCCC1)n1cc(-c2ncnc3[nH]ccc23)cn1 [ruxolitinib] | – | 13 | – | -2.79 | – | – | -1.06 | 16 | -6 | – | – | 20 | – | – | – | 68
13 | CCN(CC)CCNC(=O)c1c(C)[nH]c(/C=C2\C(=O)Nc3ccc(F)cc32)c1C [sunitinib] | – | – | 88 | – | – | – | – | 97 | – | – | – | – | – | – | – | –
14 | COc1cc2c(Nc3ccc(Br)cc3F)ncnc2cc1OCC1CCN(C)CC1 [vandetanib] | – | 93 | – | -4 | 100 | – | – | – | -4.3 | – | – | – | – | – | – | –
